Source: the supplement of paper PMC6045584

Compound: COc1ccc(C2=N[C@@H](c3ccc(Cl)cc3)[C@@H](c3ccc(Cl)cc3)N2C(=O)N2CCNC(=O)C2)c(OC(C)C)c1 [NUTLIN3]
Experiment: area under dose-response curve of surviving fraction (unscaled, Aref=0) (surviving fraction x log10(nM)); higher = more resistant
Settings: exposure time: 5 days; dose range 0.5-1000 nM
Summary of the method: (§1)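 Tumour cell lines in 384-well plates were exposed to eight inhibitor concentrations, from 0.5 to 1000 nM, for five days, and viability was read by CellTiter-Glo luminescence in three screens per line. Signals were normalised to DMSO-only wells, and 3-parameter logistic regression in the drc R package fitted dose-response survival curves to the surviving fractions. Area under the curve is given as the unscaled activity area. That area is taken over log10 dose with Aref = 0.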

Test System	area under dose-response curve
SIHA CERVIX	3.54
BT549 BREAST	3.68
NCIH441 LUNG	3.56
HCT15 LARGE INTESTINE	3.38
MDAMB453 BREAST	3.54
MDAMB468 BREAST	3.39

Compound: Nc1ncn([C@H]2C[C@H](O)[C@@H](CO)O2)c(=O)n1 [DECITABINE]
Experiment: as above
Settings: exposure time: 5 days; dose range 0.5-1000 nM
Summary of the method: as §1

Test System	area under dose-response curve
SCC36 HEADNECK	3.08
OS25HAL BONE	3.53
U2OS BONE	3.01
SUM44 BREAST	3.87
RDES SOFT TISSUE	3.9
MDAMB157 BREAST	2.4
CADOES1 SOFT TISSUE	2.23
S68 BREAST	2.84
SNU475 LIVER	3.4
22RV1 PROSTATE	2.81
SCC003 HEADNECK	2.94
JURKAT HAEMATOPOIETIC AND LYMPHOID TISSUE	1.56
HT1080 SOFT TISSUE	3.03
LNCAP PROSTATE	2.75
OSHN BONE	3.71
BT20 BREAST	4.16

Test System	area under dose-response curve
SJSA1 BONE	4.52
HCC78 LUNG	2.49
NY BONE	2.91
NOS1 BONE	3.34
93VU HEADNECK	3.07
SUM159 BREAST	3.48
ASKA SYNOVIAL	3.08
CME SYNOVIAL	2.82
VCAP PROSTATE	3.68
SG27 HEADNECK	3.79
SIHA CERVIX	3.46
BT549 BREAST	2.69
NCIH441 LUNG	2.57
HCT15 LARGE INTESTINE	3.19
MDAMB468 BREAST	2.63

Compound: O=c1[nH]cc(F)c(=O)[nH]1 [FLUOROURACIL]
Experiment: as above
Settings: exposure time: 5 days; dose range 0.5-1000 nM
Summary of the method: as §1

Test System	area under dose-response curve
SCC36 HEADNECK	2.79
SG43 HEADNECK	3.27
U2OS BONE	3.18
SUM44 BREAST	3.15
RDES SOFT TISSUE	3.48
CADOES1 SOFT TISSUE	3.05
SCC47 HEADNECK	3.44
S68 BREAST	2.83
SNU475 LIVER	3.03
22RV1 PROSTATE	3.25
SCC003 HEADNECK	3.08
HT1080 SOFT TISSUE	3.06
HUO3N1 BONE	3.28
HCC78 LUNG	3.24
93VU HEADNECK	3.04
SUM159 BREAST	3.29
YAMATO SYNOVIAL	3
SG27 HEADNECK	3.48
VP229 BREAST	2.98
BT549 BREAST	2.98
HCT15 LARGE INTESTINE	2.73
MDAMB453 BREAST	3.14
MDAMB468 BREAST	2.83

Compound: COc1cc2c(cc1O)CC[C@@H]1[C@@H]2CC[C@]2(C)[C@@H](O)CC[C@@H]12 [2-METHOXYESTRADIOL]
Experiment: as above
Settings: exposure time: 5 days; dose range 0.5-1000 nM
Summary of the method: as §1

Test System	area under dose-response curve
OS25HAL BONE	3.02
SG43 HEADNECK	2.84
U2OS BONE	3.08
MDAMB157 BREAST	3.1
CHLA90 AUTONOMIC GANGLIA	3.22
CADOES1 SOFT TISSUE	3.23
SG31 HEADNECK	3.42
SCC47 HEADNECK	3.24
S68 BREAST	3.07
SNU475 LIVER	3.26
SG32 HEADNECK	2.92
JURKAT HAEMATOPOIETIC AND LYMPHOID TISSUE	2.65
HT1080 SOFT TISSUE	3.11
LNCAP PROSTATE	2.89
OSHN BONE	3.21
HUO3N1 BONE	3.2
SJSA1 BONE	5.58

Test System	area under dose-response curve
HCC78 LUNG	2.57
NY BONE	2.83
SUM149.B1*.S BREAST	3.49
93VU HEADNECK	3.08
SUM159 BREAST	3.24
ASKA SYNOVIAL	3.04
VCAP PROSTATE	3.12
YAMATO SYNOVIAL	3.05
SG27 HEADNECK	3.61
VP229 BREAST	3.43
SIHA CERVIX	3.15
BT549 BREAST	3.02
NCIH441 LUNG	3.22
HCT15 LARGE INTESTINE	2.65
MDAMB453 BREAST	3.02
MDAMB468 BREAST	3.5

Compound: CC[C@@H](C(=O)[C@@H](C)[C@@H](O)[C@H](C)[C@@H]1O[C@@H]([C@@H](CC)C(=O)O)CC[C@@H]1C)[C@H]1O[C@]2(C=C[C@@H](O)[C@]3(CC[C@@](C)([C@H]4CC[C@](O)(CC)[C@H](C)O4)O3)O2)[C@H](C)C[C@@H]1C [SALINOMYCIN]
Experiment: as above
Settings: exposure time: 5 days; dose range 0.5-1000 nM
Summary of the method: as §1

Test System	area under dose-response curve
SCC36 HEADNECK	2.7
OS25HAL BONE	2.57
SG43 HEADNECK	3.03
U2OS BONE	3.16
SUM44 BREAST	3.22
RDES SOFT TISSUE	2.26
MDAMB157 BREAST	2.66
CHLA90 AUTONOMIC GANGLIA	2.67
CADOES1 SOFT TISSUE	2.37
SG31 HEADNECK	2.81
SCC47 HEADNECK	3.07
S68 BREAST	2.67
SNU475 LIVER	2.58
22RV1 PROSTATE	2.38
SG32 HEADNECK	2.42
SCC003 HEADNECK	2.91
JURKAT HAEMATOPOIETIC AND LYMPHOID TISSUE	2.52
HT1080 SOFT TISSUE	3.16
LNCAP PROSTATE	1.9
OSHN BONE	2.81
SG28 HEADNECK	2.71
HUO3N1 BONE	2.41
BT20 BREAST	3.84
SJSA1 BONE	2.91
HCC78 LUNG	2.33
NY BONE	2.53
NOS1 BONE	2.83
